In ChEMBL document CHEMBL1128016, “5-Cyano-2-thiouracils and their derivatives: a new class of leishmanicides” (1994):

Tested on: Leishmania donovani
Test: In vivo anti-leishmanial activity was determined against hamster amastigotes of Leishmania donovani
Assay type: functional
Set-up: concentration or dose not given beside the values

Row | Molecule | Inhibition [%]
1 | N#Cc1c(Nc2ccc(F)cc2)nc(SCc2ccccc2)nc1-c1cccnc1 | 78
2 | CCC1NC(=S)NC(=O)C1C#N (centres undefined) | 80
3 | CSc1nc(Cl)c(C#N)c(-c2ccc(C)cc2)n1 | 36
4 | N#Cc1c(O)nc(S)nc1-c1ccccc1Cl | 0
5 | COc1cccc(-c2nc(SC)n(C)c(=O)c2C#N)c1 | 61
6 | Cc1ccc(-c2nc(SCc3ccccc3)[nH]c(=O)c2C#N)cc1 | 82
7 | CSc1nc(-c2ccc(C)cc2)c(C#N)c(=O)n1C | 50
8 | COc1cccc(-c2nc(SC)nc(Cl)c2C#N)c1 | 30
9 | C=CCSc1nc(O)c(C#N)c(-c2cccc(OC)c2)n1 | 80
10 | COc1cccc(-c2nc(SCc3ccccc3)nc(O)c2C#N)c1 | 0
11 | COc1cccc(-c2nc3n(c(=O)c2C#N)CCS3)c1 | 73
12 | N#Cc1c(O)nc(SCc2ccc(Cl)cc2)nc1-c1cccnc1 | 84
13 | Cc1ccc(-c2nc3n(c(=O)c2C#N)CCS3)cc1 | 65
14 | N#Cc1c(Nc2ccccc2)nc(SCc2ccccc2)nc1-c1cccnc1 | 57
15 | COc1cccc(-c2nc(SCc3ccc(Cl)cc3)nc(O)c2C#N)c1 | 85
16 | COc1cccc(-c2nc(S)nc(O)c2C#N)c1 | 78
17 | Cc1ccc(-c2nc(S)nc(O)c2C#N)cc1 | 63
18 | C=CCSc1nc(O)c(C#N)c(-c2ccc(C)cc2)n1 | 75
19 | COc1cccc(-c2nc3n(c(=O)c2C#N)CCCS3)c1 | 63
20 | N#Cc1c(O)nc(S)nc1-c1ccc(F)cc1 | 63
21 | CCc1nc(SCc2ccc(Cl)cc2)nc(O)c1C#N | 76
22 | Cc1ccc(-c2nc3n(c(=O)c2C#N)CCCS3)cc1 | 62
23 | Cc1cccc(-c2nc(SCc3ccccc3)nc(O)c2C#N)c1 | 0

Tested on: Leishmania donovani
Test: In vivo anti-leishmanial activity against hamster amastigotes of Leishmania donovani at a dose of 10 mg/kg for a period of 5 days
Assay type: functional, organism-based
Set-up: dose 10 mg/kg

Row | Molecule | inhibition [%]
24 | Sodium stibogluconate | 86
